This is an account of results in patent US20170216244A1, “METHODS FOR TREATING DIABETIC NEPHROPATHY” (YALE UNIVERSITY, priority 2014, published 2017).

For data set [1], the system named is Sema3a^+ podocytes. Nature of the data set: Podocyte morphology assay (rhodamine-phalloidin staining, cell area morphometry). Type of data set: cell-based. The method, then:
Sema3a^+ podocyte cell line was described previously (Reidy et al., Am J Pathol 2013;183(4):1156-1168). Sema3a^+ podocytes were exposed to RPMI 1640 medium+1%FBS, medium+0.1 μM xanthofulvin, medium+100 ng/ml rat recombinant Sema3a (Reidy et al., Development 2009;136(23):3979-3989) or medium+xanthofulvin+Sema3a for 16 h, fixed and stained with rhodamine-phalloidin. Images were acquired (Zeiss Axiovert); podocyte area (μm^2) was measured using Zeiss AxioVision software as described (Reidy et al., Am J Pathol 2013;183(4):1156-1168), n=71±4 cells/experimental condition from 3 independent experiments were measured.

The subject of data set [2] is Sema3a^+ gain-of-function diabetic mice. Nature of the data set: Sema3a inhibition study: xanthofulvin subcutaneous infusion in Sema3a^+ gain-of-function diabetic mice. Format: in vivo, mouse. The method, then:
Podocin-rtTA:tet-O-Sema3a mice, herein called Sema3a^+, generated previously (Reidy et al., Development 2009;136(23):3979-3989) were maintained in FVB genetic background for >10 generations. Diabetes was induced (low dose protocol, AMDCC.org) in 6-8 weeks old male Sema3a^+ mice by 5 daily i.p. streptozotocin (STZ) (50 mg/kg) . Diabetes (random blood glucose >300 mg/dl) was confirmed using glucose oxidase biosensor blood glucose meter (One-Touch-Ultra-2; LifeScan) one week after the last STZ injection. Diabetic Sema3a^+ (DM-Sema3a^+) (n=15) and non-diabetic Sema3a^+ (non-DM-Sema3a^+) (n=18) mice were fed doxycycline-containing diet (0.625mg/kg chow, Harlan-Teklad) or standard chow for 12-16 weeks. After 12-16 weeks of diabetes, 24 h urine was collected in metabolic cages, blood and kidneys were collected under anesthesia. For Sema3a inhibition studies, DM-Sema3a^+ mice were fed doxycycline-containing chow for 8 weeks, then Alzet osmotic pumps (Model 1004) containing xanthofulvin (0.5 mg/ml in PBS) (Ieda et al., Nat Med 2007;13(5):604-612) (n=4) or saline (n=2) were implanted subcutaneously, all mice were kept on doxycycline-containing chow for the following 4 weeks.
Urinary albumin was measured using mouse albumin ELISA (Bethyl Laboratories) and SDS-PAGE/Coomassie Blue staining as described (Reidy et al., Am J Pathol 2013;183(4):1156-1168). Plasma and 24h urine creatinine were measured by HPLC. Transmission electron microscopy (TEM) was performed using standard techniques. Glomerular area was measured using ImageJ-NIH (rsb.info.nih.gov/ij/) in 34±2.1 glomeruli/kidney from 4 mice/experimental condition. A renal pathologist (G.M.) examined PAS stained kidney specimens in blinded fashion and assigned a semiquantitative pathology score based on % area (0=none;1=1-25%;2=26-50%;3=51-75%;4=76-100%) with the following features: glomerular nodules, mesangiolysis, mesangial sclerosis and interstitial fibrosis. The percentage glomeruli/section containing mesangiolysis or nodules was calculated (Veron et al., J Am Soc Nephrol. 2014;25(8):1814-1824).

For data set [3], the target named is T1, Sema3a (Homo sapiens, UniProt Q14563).
T1 sequence (Q14563 21-771): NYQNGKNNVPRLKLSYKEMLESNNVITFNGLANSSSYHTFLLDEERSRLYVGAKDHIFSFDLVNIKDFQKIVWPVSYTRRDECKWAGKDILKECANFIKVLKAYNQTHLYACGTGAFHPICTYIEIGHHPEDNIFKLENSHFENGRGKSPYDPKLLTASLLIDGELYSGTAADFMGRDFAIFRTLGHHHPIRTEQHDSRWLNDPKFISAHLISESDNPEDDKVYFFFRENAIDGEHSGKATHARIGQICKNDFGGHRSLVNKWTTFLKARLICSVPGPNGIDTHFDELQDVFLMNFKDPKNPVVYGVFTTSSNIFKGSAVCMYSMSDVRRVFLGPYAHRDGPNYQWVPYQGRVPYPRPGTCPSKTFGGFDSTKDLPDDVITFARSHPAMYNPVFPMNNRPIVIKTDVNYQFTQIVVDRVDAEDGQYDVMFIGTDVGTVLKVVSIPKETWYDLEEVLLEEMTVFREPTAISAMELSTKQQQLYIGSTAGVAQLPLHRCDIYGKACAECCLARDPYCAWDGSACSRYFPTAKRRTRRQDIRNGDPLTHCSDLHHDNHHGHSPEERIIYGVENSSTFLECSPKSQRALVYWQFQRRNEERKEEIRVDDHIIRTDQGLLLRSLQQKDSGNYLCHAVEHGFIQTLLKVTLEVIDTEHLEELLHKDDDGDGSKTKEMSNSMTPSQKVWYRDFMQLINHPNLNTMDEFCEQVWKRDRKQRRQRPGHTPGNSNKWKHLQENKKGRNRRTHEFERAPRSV
Particulars: fungal and synthetic xanthofulvin, in vitro; cited from earlier work.

For data set [4] the following is noted: purified fungal xanthofulvin, in vivo; cited from earlier work.
The subject of data set [5] is MICAL1. In words: Podocyte MICAL1 knockdown by siRNA, immunoblot. Type of data set: cell-based, mouse. Particulars: 200 pmol siRNA, 72 hours, cultured podocytes, densitometry. The method, then: Equal amount of protein from ≧4 kidney lysates/experimental condition were pooled and resolved by SDS-PAGE, immunoblotting was performed using standard technique with the following primary antibodies: WT1, podocin, nephrin, laminin, Sema3a (sc-28867; Santa Cruz), β3-integrin (sc-14009; Santa Cruz), β1-integrin (AB1952; EMD-Millipore), neuropilin-1 (Kolodkin et al., Cell 1997;90:753-762; Takahashi et al., Cell 1999;99(1):59-69), MMP-2 (MAB13434; EMD-Millipore), MMP-9 (AB19016; EMD-Millipore), plexinA1 (sc-25639; Santa Cruz), VEGFR-2 (2479; Cell Signaling), MICAL1 (14818-1-AP; Proteintech); actin (A2066; Sigma) or tubulin (Sigma) were used as loading controls. Signals were detected with appropriate HRP-conjugated secondary antibodies, visualized by chemiluminescence and quantified using ImageJ.
(§1) Podocyte MICAL-1 knockdown was induced using a mouse MICAL-1 siRNA oligonucleotide ([…], SEQ ID NO: 1) (Zhou et al., Mol Cell Biol 2011;31(17):3603-3615) (Dharmacon). Briefly, podocytes were transfected with 200 pmol MICAL-1 siRNA or scrambled siRNA using Oligofectamine (Invitrogen) and incubated for 72 hours. MICAL1 knockdown was confirmed by immunoblot. Podocytes with or without MICAL1 knockdown were exposed to mouse recombinant Sema3a (100 ng/ml) for 6 hours. Podocytes were fixed, permeabilized, stained with rhodamine-phalloidin, and their morphology was analyzed as described above.
A general note: Immunoblotting shows a protein as a band on a membrane.

Data set [6] has as its system podocytes. In words: Podocyte MICAL1 knockdown morphology assay. Particulars: mouse recombinant Sema3a 100 ng/ml, 6 hours. Format: cell-based. On the procedure: as §1
Setting [7] is: constant subcutaneous infusion ~1.8 μg/d for 30 days.

Where “and” joins values, the source holds several entries; their conditions need not be identical. Equal values may be shown once. Entries after “also recorded” stand apart in the source; their conditions may differ.

`CC(=O)c1c(C)c(/C(O)=C2\COc3cc(O)c(O)c(C(=O)O)c3C2=O)cc2c(=O)c3c(C(=O)O)c(O)c(O)cc3oc12` [xanthofulvin]: the “Sema3a-induced podocyte F-actin collapse, shape change and contraction” value in data set [1] (0.1 μM xanthofulvin, 100 ng/ml rat recombinant Sema3a, synthetic xanthofulvin) is “prevented Sema3a-induced podocyte F-actin collapse, shape change and contraction; also recorded: abrogates Sema3a-induced podocyte contraction in vitro; also recorded: abrogates Sema3a-induced podocyte F-actin collapse in vitro; also recorded: abrogates Sema3a-induced podocyte F-actin collapse, shape change and contraction”. Also, the “deleterious effects in cultured podocytes” value in data set [1] (cultured podocytes) is “no deleterious effects in cultured podocytes”. Moreover, in data set [2] (setting [7]), the “GBM thickness (TEM morphometry)” value was “significantly decreased GBM thickness; also recorded: quite normal GBM”; the body weight result is “stable body weight”; the “creatinine clearance (renal insufficiency)” value is listed as “abrogated renal insufficiency; also recorded: normalized”; the “diabetic glomerulosclerosis phenotype by histology and TEM” value was “markedly attenuates the diabetic glomerulosclerosis phenotype; also recorded: abrogate the diabetic nodular glomerulosclerosis; also recorded: abrogated; also recorded: mild mesangial hypercellularity and extracellular matrix expansion”. For the same compound, in data set [2] (setting [7]), the “foot process effacement / FP width (TEM morphometry)” value is given as “significantly decreased; also recorded: focal FPE”, the “plasma albumin (hypoalbuminemia)” value is given as “corrects hypoalbuminemia; also recorded: normalized” and the side effect entry was “no apparent side effect”. In addition, in data set [2] (constant subcutaneous infusion ~1.8 μg/d for 30 days (weeks 8-12 after diabetes onset)), the albuminuria entry is listed as “significantly decreases albuminuria; also recorded: decreased albuminuria; also recorded: improved albuminuria”. Moreover, the “Sema3a-induced growth cone collapse” value in data set [3] was “prevent Sema3a-induced growth cone collapse in vitro”. For the same compound, in data set [4], the “functional recovery of injured spinal cord” value was “promotes functional recovery of injured spinal cord”.

“siRNA: mouse MICAL-1 siRNA oligonucleotide (CAGGUGCCAUGACUAAGUAUU, SEQ ID NO: 1) (listed as RNA, chemistry not given here; listed as Mus musculus)”: the “decrease of MICAL1 expression (knockdown)” value in data set [5] was 73±2.6% and ~75%. For the same compound, the “Sema3a-induced podocyte contraction and F-actin collapse after MICAL1 knockdown” value in data set [6] was “not susceptible to Sema3a-induced contraction; also recorded: prevents Sema3a-induced podocyte contraction and F-actin collapse”.
